Test results reported in PubChem BioAssay (NCI).
Values joined by “and” are separate entries in the source; they are usually repeats but may differ in a detail not shown here. Equal values may be shown once.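 A five-concentration, 48-hour dose response in 96-well plates underlies each endpoint, interpolated linearly between surrounding concentrations. Abbreviation: GI50, concentration required for 50% inhibition of growth. TGI: total growth inhibition.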

Legend:
Assay in all cases: growth of human tumour cells (NCI), 48 h
ACHN renal = test system: ACHN renal
EKVX NSCLC = test system: EKVX NSCLC
HL-60(TB) leukemia = test system: HL-60(TB) leukemia
HOP-92 NSCLC = test system: HOP-92 NSCLC
NCI/ADR-RES ovarian = test system: NCI/ADR-RES ovarian
SF-268 CNS = test system: SF-268 CNS
SK-MEL-2 melanoma = test system: SK-MEL-2 melanoma
SK-MEL-28 melanoma = test system: SK-MEL-28 melanoma
T-47D breast = test system: T-47D breast
UACC-62 melanoma = test system: UACC-62 melanoma

Row | SMILES | TGI (ACHN renal) | TGI (EKVX NSCLC) | TGI (HL-60(TB) leukemia) | TGI (HOP-92 NSCLC) | TGI (NCI/ADR-RES ovarian) | TGI (SF-268 CNS) | TGI (SK-MEL-2 melanoma) | TGI (SK-MEL-28 melanoma) | TGI (T-47D breast) | TGI (UACC-62 melanoma) | GI50 (ACHN renal) | GI50 (EKVX NSCLC) | GI50 (HL-60(TB) leukemia) | GI50 (HOP-92 NSCLC) | GI50 (NCI/ADR-RES ovarian) | GI50 (SF-268 CNS) | GI50 (SK-MEL-2 melanoma) | GI50 (SK-MEL-28 melanoma) | GI50 (T-47D breast) | GI50 (UACC-62 melanoma)
1 | CC(C)CCC[C@@H](C)[C@H]1CC[C@H]2[C@@H]3CC[C@H]4C[C@@H](CCC=C(c5cc(Cl)c(O)c(C(=O)O)c5)c5cc(Cl)c(O)c(C(=O)O)c5)CC[C@]4(C)[C@H]3CC[C@]12C | > 100 µM | > 100 µM | > 100 µM | > 100 µM | > 100 µM | > 100 µM | > 100 µM | > 100 µM | > 100 µM | > 100 µM | – | – | – | – | – | – | – | – | – | –
2 | Cc1ncc(C(=O)Nc2ccc(CN3CCN(C)CC3)c(C(F)(F)F)c2)cc1C#Cc1cnc2cccnn12 | 1.53 µM | 2.9 µM | 1.17 µM | 2.87 µM | 4.09 µM | 2.59 µM | 1.54 µM | 1.84 µM | 12.3 µM | 1.32 µM | 0.287 µM | 0.683 µM | 0.195 µM | 0.253 µM | 0.997 µM | 0.622 µM | 0.335 µM | 0.212 µM | 1.91 µM | 0.28 µM
3 | CCC(O)c1ccc(Br)cc1NC(=O)c1cccc(Cl)c1 (centres undefined) | > 100 µM | – | 60.1 µM | 65.6 µM | > 100 µM | 93.2 µM | 82.4 µM | 64.8 µM | 84.8 µM | > 100 µM | 23.1 µM | – | 22.3 µM | 12.1 µM | 23.4 µM | 26.2 µM | 28.1 µM | 23.9 µM | 12.7 µM | 12.5 µM
4 | O=S(=O)(NCCNc1nccc(-c2c(-c3ccc(F)c(O)c3)nc3sccn23)n1)c1ccc(F)cc1 | 28.5 µM | 60.6 µM | 6.09 µM | 6.86 µM | > 100 µM | > 100 µM | 12.9 µM | 21.9 µM | 28 µM | 9.82 µM | 2.58 µM | 5.42 µM | 2.14 µM | 1.3 µM | 8.5 µM | 4.71 µM | 1.87 µM | 0.429 µM | 5.02 µM | 0.587 µM
5 | CC(=O)Oc1ccc(C23c4ccccc4C2(OC(C)=O)c2cc(OC(C)=O)ccc23)cc1 (centres undefined) | 5.4 µM | 16.6 µM | 6.72 µM | 20.3 µM | 10.2 µM | 22 µM | 94.3 µM | > 100 µM | 7.45 µM | 13.7 µM | 1.94 µM | 3.52 µM | 2.41 µM | 5.01 µM | 2.82 µM | 5.54 µM | 27.7 µM | 31.6 µM | 2.22 µM | 3.69 µM
6 | NCCSSCCN | > 100 µM | > 100 µM | > 100 µM | > 100 µM | > 100 µM | > 100 µM | > 100 µM | > 100 µM | > 100 µM | > 100 µM | – | – | – | – | – | – | – | – | – | –
7 | O=C(O)c1ccc(CI)cc1 | 30.1 µM | 36.4 µM | 42.4 µM | 31 µM | 34.8 µM | 39.8 µM | 48.7 µM | 31.9 µM | 48 µM | 26.4 µM | – | – | – | – | – | – | – | – | – | –
8 | C=CCNc1nc2c(s1)C(=O)c1ccccc1C2=O | 20.2 µM | 29 µM | 4.02 µM | 21.8 µM | 82.8 µM | 26 µM | 25.9 µM | 32.8 µM | 68.3 µM | 9.37 µM | – | – | – | – | – | – | – | – | – | –
9 | CCOC(=O)c1cc2cc3c4c(c2oc1=O)CCCN4CCC3 | > 100 µM | 80 µM | 45.8 µM | 58 µM | 72.9 µM | 71.3 µM | > 100 µM | > 100 µM | 53.6 µM | – | – | – | – | – | – | – | – | – | – | –
10 | CC(C)Nc1cc(-c2c[nH]c(C(=O)N[C@H](CO)c3cccc(Cl)c3)c2)c(Cl)cn1 | 14.9 µM and > 10 µM | 15.4 µM and > 10 µM | 4.67 µM and > 10 µM | 2.84 µM and 1.81 µM | 24.4 µM and > 10 µM | 24.5 µM and > 10 µM | 0.75 µM and 1.41 µM | – | 16.8 µM and > 10 µM | 12.3 µM and > 10 µM | 2.24 µM and 2.08 µM | 1.97 µM and 0.783 µM | 0.378 µM and 0.272 µM | 0.312 µM and 0.233 µM | 5.57 µM and > 7.85 µM | 4.46 µM and > 7.71 µM | 0.18 µM and 0.179 µM | 0.126 µM and 0.0718 µM | 1.77 µM and > 5.23 µM | 0.0826 µM and 0.13 µM
11 | CC(C)c1cnn2c(NCc3ccccc3)cc(NC[C@H]3CCNC[C@@H]3O)nc12 | 10.5 µM and 9.73 µM | 8.2 µM and 6.07 µM | 0.584 µM and 1.71 µM | 4.22 µM and 5.54 µM | 46.9 µM and > 87.5 µM | 4.63 µM and 2.72 µM | 1.63 µM and 2.15 µM | 2.43 µM and 2.41 µM | 7.58 µM and 9.5 µM | 1.96 µM and 1.92 µM | 0.833 µM and 1.55 µM | 0.861 µM and 0.645 µM | 0.132 µM and 0.297 µM | 0.242 µM and 1.31 µM | 15.4 µM and 19.7 µM | 0.402 µM and 0.648 µM | 0.334 µM and 0.668 µM | 0.388 µM and 0.343 µM | 0.472 µM and 0.898 µM | 0.236 µM and 0.29 µM
12 | Cn1c(-c2c(N)n(Nc3cccc(Cl)c3)c3nc(C#N)c(C#N)nc23)nc2ccccc21 | 15 µM | 7.45 µM | > 50 µM | > 50 µM | 14.1 µM | 35.6 µM | 18.9 µM | 24.4 µM | > 50 µM | 14.9 µM | 5.44 µM | 0.839 µM | 8.19 µM | 16.5 µM | 0.837 µM | 10 µM | 5.85 µM | 6.99 µM | 13.2 µM | 4.59 µM
13 | O=C(O)c1ccc(NCn2nc(-c3ccccc3O)oc2=S)cc1 | 72 µM | > 100 µM | > 100 µM | 82.6 µM | > 100 µM | > 100 µM | > 100 µM | > 100 µM | > 100 µM | 97.7 µM | 27.7 µM | > 100 µM | 62.8 µM | 33.8 µM | 62.7 µM | 96.4 µM | > 100 µM | > 100 µM | > 100 µM | 34.1 µM
14 | CCCCCCCCOC(=O)CC[C@@H](C)[C@H]1CC[C@H]2[C@@H]3[C@H](OC(=O)CCN)C[C@@H]4C[C@H](OC(=O)CCN)CC[C@]4(C)[C@H]3C[C@H](OC(=O)CCN)[C@]12C | 32.2 µM | – | 11.3 µM | 6.74 µM | 37.8 µM | 9.12 µM | 18.7 µM | 15.1 µM | 39.9 µM | 12.7 µM | 15.9 µM | – | 3.32 µM | 2.29 µM | 17.2 µM | 3.34 µM | 4.88 µM | 3.52 µM | 12.3 µM | 3.45 µM
